Test results from the NIST ThermoML archive (doi:10.1016/j.jct.2019.02.025).

Tests used:
[1] = refractive index (Na D-line) (dimensionless); settings: 101.33 kPa, Liquid, Standard Abbe refractometry
[2] = for mass density / kinematic viscosity: 101.33 kPa, Liquid; for mass density: Vibrating tube method; for surface tension liquid-gas / kinematic viscosity: Surface laser light scattering (SLLS)

CCCCCCCC(=O)OCC [ethyl octanoate]
Settings	kinematic viscosity [m2/s]	mass density [kg/m3]	refractive index	surface tension liquid-gas [mN/m]
[1], 278.15 K	–	–	1.42461	–
[1], 283.15 K	–	–	1.42242	–
[1], 288.15 K	–	–	1.42025	–
[1], 293.15 K	–	–	1.41807	–
[1], 298.15 K	–	–	1.41587	–
[1], 303.15 K	–	–	1.41367	–
[1], 308.15 K	–	–	1.41148	–
[1], 313.15 K	–	–	1.40926	–
[1], 318.15 K	–	–	1.40703	–
[1], 323.15 K	–	–	1.40481	–
[1], 328.15 K	–	–	1.40261	–
[1], 333.15 K	–	–	1.40042	–
[1], 338.15 K	–	–	1.39823	–
[1], 343.15 K	–	–	1.39603	–
[1], 348.15 K	–	–	1.39386	–
[1], 353.15 K	–	–	1.3917	–
[1], 358.15 K	–	–	1.38955	–
[2], 293.15 K	–	866.99	–	–
[2], 298.15 K	1.52e-06	–	–	25.38
[2], 303.15 K	–	858.27	–	–
[2], 313.15 K	–	849.55	–	–
[2], 323.14 K	1.15e-06	–	–	23.34
[2], 323.15 K	–	839.92	–	–
[2], 333.15 K	–	832	–	–
[2], 343.15 K	–	823.46	–	–
[2], 348.17 K	8.92e-07	–	–	21.5
[2], 353.15 K	–	814.74	–	–
[2], 363.15 K	–	805.97	–	–
[2], 373.15 K	–	797.16	–	–
[2], 373.19 K	6.88e-07	–	–	19.5
[2], 383.15 K	–	788.08	–	–
[2], 393.15 K	–	779.34	–	–
[2], 398.2 K	5.45e-07	–	–	17.44
[2], 403.15 K	–	770.31	–	–
[2], 413.15 K	–	761.18	–	–
[2], 423.15 K	–	751.94	–	–
[2], 423.18 K	4.53e-07	–	–	15.36
[2], 433.15 K	–	742.64	–	–
[2], 443.15 K	–	733.17	–	–
[2], 448.17 K	3.86e-07	–	–	13.16
[2], 453.15 K	–	723.58	–	–

CCCCCCCC(=O)OC [methyl octanoate]
Settings	kinematic viscosity [m2/s]	mass density [kg/m3]	refractive index	surface tension liquid-gas [mN/m]
[1], 278.15 K	–	–	1.42385	–
[1], 283.15 K	–	–	1.42168	–
[1], 288.15 K	–	–	1.41951	–
[1], 293.15 K	–	–	1.41734	–
[1], 298.15 K	–	–	1.41516	–
[1], 303.15 K	–	–	1.41298	–
[1], 308.15 K	–	–	1.41079	–
[1], 313.15 K	–	–	1.40854	–
[1], 318.15 K	–	–	1.40629	–
[1], 323.15 K	–	–	1.40405	–
[1], 328.15 K	–	–	1.40183	–
[1], 333.15 K	–	–	1.39965	–
[1], 338.15 K	–	–	1.3975	–
[1], 343.15 K	–	–	1.39535	–
[1], 348.15 K	–	–	1.3932	–
[1], 353.15 K	–	–	1.39104	–
[1], 358.15 K	–	–	1.38886	–
[2], 293.15 K	–	876.58	–	–
[2], 298.19 K	1.51e-06	–	–	24.65
[2], 303.15 K	–	866.75	–	–
[2], 313.15 K	–	858.95	–	–
[2], 323.15 K	–	850.13	–	–
[2], 323.21 K	1.09e-06	–	–	23.02
[2], 333.15 K	–	841.3	–	–
[2], 343.15 K	–	832.44	–	–
[2], 348.23 K	8.31e-07	–	–	21.61
[2], 353.15 K	–	823.54	–	–
[2], 363.15 K	–	814.59	–	–
[2], 373.15 K	–	805.56	–	–
[2], 373.28 K	6.5e-07	–	–	19.62
[2], 383.15 K	–	796.52	–	–
[2], 393.15 K	–	787.36	–	–
[2], 398.31 K	5.19e-07	–	–	17.62
[2], 403.15 K	–	778.1	–	–
[2], 413.15 K	–	768.72	–	–
[2], 423.15 K	–	759.27	–	–
[2], 423.31 K	4.3e-07	–	–	15.47
[2], 433.15 K	–	749.61	–	–
[2], 443.15 K	–	739.56	–	–
[2], 448.33 K	3.59e-07	–	–	13.44
[2], 453.15 K	–	729.82	–	–

CCCCCCCCCCCCCC(=O)OC [methyl tetradecanoate]
Settings	kinematic viscosity [m2/s]	mass density [kg/m3]	refractive index	surface tension liquid-gas [mN/m]
[1], 293.15 K	–	–	1.43704	–
[1], 298.15 K	–	–	1.43499	–
[1], 303.15 K	–	–	1.43296	–
[1], 308.15 K	–	–	1.43093	–
[1], 313.15 K	–	–	1.4289	–
[1], 318.15 K	–	–	1.42681	–
[1], 323.15 K	–	–	1.42472	–
[1], 328.15 K	–	–	1.42254	–
[1], 333.15 K	–	–	1.4202	–
[1], 338.15 K	–	–	1.41783	–
[1], 343.15 K	–	–	1.4163	–
[1], 348.15 K	–	–	1.41474	–
[1], 353.15 K	–	–	1.41282	–
[1], 358.15 K	–	–	1.41083	–
[2], 293.15 K	–	867.06	–	–
[2], 303.15 K	–	859.28	–	–
[2], 313.15 K	–	851.61	–	–
[2], 323.15 K	–	843.97	–	–
[2], 323.17 K	2.41e-06	–	–	23.37
[2], 333.15 K	–	836.37	–	–
[2], 343.15 K	–	828.8	–	–
[2], 348.16 K	1.76e-06	–	–	21.83
[2], 353.15 K	–	821.26	–	–
[2], 363.15 K	–	813.71	–	–
[2], 373.15 K	–	806.17	–	–
[2], 373.18 K	1.38e-06	–	–	20.78
[2], 383.15 K	–	798.64	–	–
[2], 393.15 K	–	791.09	–	–
[2], 398.2 K	1.08e-06	–	–	19.71
[2], 403.15 K	–	783.52	–	–
[2], 413.15 K	–	775.91	–	–
[2], 423.15 K	–	768.24	–	–
[2], 423.17 K	8.63e-07	–	–	18.31
[2], 433.15 K	–	760.61	–	–
[2], 443.15 K	–	752.95	–	–
[2], 448.17 K	7e-07	–	–	16.82
[2], 453.15 K	–	745.22	–	–
